What follows are compounds tested on Lp(a) (assay: In-vitro Lp(a) assembly assay (cell-free, sandwich ELISA)). Conditions: inhibition of Lp(a) formation; HepG2 and HEK293 (human Apo(a), 17 Kringle repeats) conditioned media, 37°C, 2 hours; 4-parameter curve.
Format: biochemical
Method: The capability of the compounds in the examples inhibiting the formation of Lp(a) particles in vitro was evaluated through cell-free assembly assay. After incubation at 37°C with 5% CO2 for 96 h, conditioned media (supplemented with 10% FBS, 20 mM HEPES, and 1 × penicillin/streptomycin DMEM) was collected from confluent wild-type HepG2 cells (source of endogenously expressed ApoB) and an HEK293 stable cell line expressing human Apo(a) protein containing 17 Kringle repeats (selected on 1 ug/ml puromycin). In-vitro assembly assay was performed by combining equal parts of HepG2 and HEK293 conditioned media with compounds under test added in a dilution series (final concentration being 0.03-1000 nM). A reaction was incubated at 37°C for 2 hours, and terminated by adding 6-aminocaproic acid (EACA) to a final concentration of 150 mM. Sandwich ELISA was used to detect Lp(a) using an anti-Apo(a) capture antibody (ab242565) and an HRP-conjugated anti-ApoB detection antibody (ab27622). ELISA was performed using TMB staining, and terminated with 1N sulfuric acid, and signals were read at 450 nm on an Envision 2104 plate reader. By setting an assembly reaction without inhibitors to 0% inhibition and an assembly reaction with the minimum amount of HepG2 conditioned medium (50-fold dilution) to 100% inhibition, the % inhibition of Lp(a) formed under each test condition was determined. Table 1 IC90 values of sulfonamide compounds

Row | IC90 [nM] | SMILES
1 | 38.1 | O=C(O)C(Cc1cccc(S(=O)(=O)N(Cc2ccc(Cl)c(CC(C(=O)O)C3CCNC3)c2)Cc2ccc(Cl)c(CC(C(=O)O)C3CCNC3)c2)c1)C1CCNC1 [Compound 41, (2S,2'S)-3,3'-(3-((S)-2-carboxyl-2-((R)-pyrrolid-3-yl)ethyl)phenyl)sulfonyl)azadiyl)dimethylenyl)bis(6-chloro-3,1-phenylenyl)bis(2-(R)-pyrrolid-3-yl)propanoic acid)]
2 | 21.6 | O=C(O)[C@@H](Cc1cc(CN(Cc2ccc(F)c(C[C@H](C(=O)O)[C@H]3CCNC3)c2)S(=O)(=O)c2ccc(Cl)c(C[C@H](C(=O)O)[C@H]3CCNC3)c2)ccc1F)[C@H]1CCNC1 [Compound 36, (2S,2'S)-3,3'-(((((3-((S)-2-carboxyl-2-((R)-pyrrolid-3-yl)ethyl)-4-chlorophenyl)sulfonyl)azadiyl)bis(methylenyl))bis(6-fluoro-3,1-phenylenyl))bis(2-((R)-pyrrolid-3-yl)propanoic acid)]
3 | 24.9 | O=C(O)[C@@H](Cc1cccc(CN(Cc2ccc(Cl)c(C[C@H](C(=O)O)[C@H]3CCNC3)c2)S(=O)(=O)c2ccc(F)c(C[C@H](C(=O)O)[C@H]3CCNC3)c2)c1)[C@H]1CCNC1 [Compound 39, (S)-3-(5-(N-(3-((S)-2-carboxyl-2-((R)-pyrrolid-3-yl)ethyl)-4-chlorobenzyl)-N-(3-((S)-2-carboxyl-2-((R)-pyrrolid-3-yl)ethyl)benzyl)aminosulfonyl)-2-fluorophenyl)-2-((R)-pyrrolid-3-yl)propanoic acid]
4 | 11.5 | O=C(O)[C@@H](Cc1cccc(S(=O)(=O)N(Cc2cc(C[C@H](C(=O)O)[C@H]3CCNC3)ccc2F)Cc2cc(C[C@H](C(=O)O)[C@H]3CCNC3)ccc2F)c1)[C@H]1CCNC1 [Compound 13]
5 | 31.4 | O=C(O)[C@@H](Cc1cccc(CN(Cc2c(F)ccc(C[C@H](C(=O)O)[C@H]3CCNC3)c2F)S(=O)(=O)c2cccc(C[C@H](C(=O)O)[C@H]3CCNC3)c2)c1)[C@H]1CCNC1 [Compound 32]
6 | 15.7 | O=C(O)C(Cc1cccc(S(=O)(=O)N(Cc2ccc(Cl)c(CC(C(=O)O)C3CCNC3)c2)Cc2ccc(Cl)c(CC(C(=O)O)C3CCNC3)c2)c1)C1CCNC1 [Compound 40, (2S,2'S)-3,3'-(3-((S)-2-carboxyl-2-((R)-pyrrolid-3-yl)ethyl)phenyl)sulfonyl)azadiyl)dimethylenyl)bis(6-chloro-3,1-phenylenyl)bis(2-(R)-pyrrolid-3-yl)propanoic acid)]
7 | 62.6 | O=C(O)[C@@H](Cc1cccc(CN(Cc2ccc(F)c(C[C@H](C(=O)O)[C@H]3CCNC3)c2)S(=O)(=O)c2cccc(C[C@H](C(=O)O)[C@H]3CCNC3)c2)c1)[C@H]1CCNC1 [Compound 2]
8 | 86.7 | O=C(O)[C@@H](Cc1cccc(S(=O)(=O)N(CCc2ccccc2C[C@H](C(=O)O)[C@H]2CCNC2)Cc2cc(C[C@H](C(=O)O)[C@H]3CCNC3)ccc2F)c1)[C@H]1CCNC1 [Compound 26]
9 | 24.4 | O=C(O)[C@@H](Cc1cccc(S(=O)(=O)N(Cc2ccc(F)c(C[C@H](C(=O)O)[C@H]3CCNC3)c2)Cc2cc(C[C@H](C(=O)O)[C@H]3CCNC3)ccc2F)c1)[C@H]1CCNC1 [Compound 14]
10 | 29 | O=C(O)[C@@H](Cc1cccc(CN(Cc2ccc(F)c(C[C@H](C(=O)O)[C@H]3CCNC3)c2F)S(=O)(=O)c2cccc(C[C@H](C(=O)O)[C@H]3CCNC3)c2)c1)[C@H]1CCNC1 [Compound 30]
11 | 47.8 | O=C(O)[C@@H](Cc1cccc(CN(Cc2cccc(C[C@H](C(=O)O)[C@H]3CCNC3)c2)S(=O)(=O)c2ccc(F)c(C[C@H](C(=O)O)[C@H]3CCNC3)c2)c1)[C@H]1CCNC1 [Compound 6]
12 | 40.3 | O=C(O)[C@@H](Cc1cccc(CN(Cc2cc(C[C@H](C(=O)O)[C@H]3CCNC3)ccc2F)S(=O)(=O)c2cccc(C[C@H](C(=O)O)[C@H]3CCNC3)c2)c1)[C@H]1CCNC1 [Compound 4]

More lines, now with the values behind:

Row | SMILES | IC90 [nM]
13 | O=C(O)C(Cc1cccc(CN(Cc2ccccc2CC(C(=O)O)C2CCNC2)S(=O)(=O)c2cccc(CC(C(=O)O)C3CCNC3)c2)c1)C1CCNC1 [Compound 23, (S)-3-(3-(((3-(S)-2-carboxyl-2-((R)-pyrrolid-3-yl)ethyl)-N-(2-((S)2-carboxyl-2-(R)pyrrolid-3-yl)ethyl)benzyl)phenyl)sulfonamido)methyl)phenyl)-2-((R)-pyrrolid-3-yl)propanoic acid] | 76.2
14 | O=C(O)[C@@H](Cc1cccc(S(=O)(=O)N(CCc2ccccc2C[C@H](C(=O)O)[C@H]2CCNC2)Cc2cccc(C[C@H](C(=O)O)[C@H]3CCNC3)c2F)c1)[C@H]1CCNC1 [Compound 25, (S)-3-(3-(N-(3-((S)-2-carboxyl-2-((R)-pyrrolid-3-yl)etyhl)-2-fluorobenzyl) -N-(2-(S)2-carboxyl-2-((R)-pyrrolid-3-yl)ethyl)phenethyl)aminosulfonyl)phenyl)-2-(((R)-pyrrolid-3-yl)propanoic acid] | 81.7
15 | O=C(O)[C@@H](Cc1cccc(CN(Cc2cccc(C[C@H](C(=O)O)[C@H]3CCNC3)c2F)S(=O)(=O)c2cccc(C[C@H](C(=O)O)[C@H]3CCNC3)c2)c1)[C@H]1CCNC1 [Compound 5] | 37.9
16 | O=C(O)[C@@H](Cc1cccc(CCN(Cc2ccc(Cl)c(C[C@H](C(=O)O)[C@H]3CCNC3)c2)S(=O)(=O)c2cccc(C[C@H](C(=O)O)[C@H]3CCNC3)c2)c1)[C@H]1CCNC1 [Compound 38] | 81.8
17 | O=C(O)C(Cc1cccc(CN(Cc2cccc(CC(C(=O)O)C3CCNC3)c2)S(=O)(=O)c2ccc(Cl)c(CC(C(=O)O)C3CCNC3)c2)c1)C1CCNC1 [Compound 35, (2S,2'S)-3,3'-(((((3-((S)-2-carboxyl-2-((R)-pyrrolid-3-yl)ethyl)-4-chlorophenyl)sulfonyl)azadiyl)bis(methylenyl))bis(3,1-phenylenyl))bis(2-((R)-pyrrolid-3-yl)propanoic acid)] | 41.3
18 | O=C(O)[C@@H](Cc1cccc(CN(Cc2ccc(Cl)c(C[C@H](C(=O)O)[C@H]3CCNC3)c2)S(=O)(=O)c2cccc(C[C@H](C(=O)O)[C@H]3CCNC3)c2)c1)[C@H]1CCNC1 [Compound 10] | 52.3
19 | O=C(O)C(Cc1cccc(CN(Cc2cccc(CC(C(=O)O)C3CCNC3)c2)S(=O)(=O)c2cc(CC(C(=O)O)C3CCNC3)ccc2F)c1)C1CCNC1 [Compound 29, (2S,2'S)-3,3'(5-((S)-2-carboxyl-2-(R)-pyrrolid-3-yl)ethyl)-2-fluorophenyl sulfonyl)azadiyl)dimethylenyl)bis(3,1-phenylenyl)bis(2-(R)-pyrrolid-3-yl)propanoic acid)] | 24.9
20 | O=C(O)[C@@H](Cc1cccc(S(=O)(=O)N(CCc2ccccc2C[C@H](C(=O)O)[C@H]2CCNC2)Cc2ccc(F)c(C[C@H](C(=O)O)[C@H]3CCNC3)c2)c1)[C@H]1CCNC1 [Compound 24] | 25.8
21 | O=C(O)[C@@H](Cc1cc(F)cc(CCN(Cc2cccc(C[C@H](C(=O)O)[C@H]3CCNC3)c2)S(=O)(=O)c2cccc(C[C@H](C(=O)O)[C@H]3CCNC3)c2)c1)[C@H]1CCNC1 [Compound 28] | 86.5
22 | O=C(O)[C@@H](Cc1cccc(CCN(Cc2cccc(C[C@H](C(=O)O)[C@H]3CCNC3)c2)S(=O)(=O)c2cccc(C[C@H](C(=O)O)[C@H]3CCNC3)c2)c1)[C@H]1CCNC1 [Compound 20] | 30.7
23 | O=C(O)C(Cc1cccc(CN(Cc2cccc(CC(C(=O)O)C3CCNC3)c2)S(=O)(=O)c2cccc(CC(C(=O)O)C3CCNC3)c2F)c1)C1CCNC1 [Compound 8, (2S,2'S)-3,3'(3-(S)-2-carboxyl-2-(R)-pyrrolid-3-yl)ethyl)-2-fluorophenyl sulfonyl)azadiyl)dimethylenyl)bis(3,1-phenylenyl)bis(2-(R)-pyrrolid-3-yl)propanoic acid)] | 26.1
24 | O=C(O)[C@@H](Cc1cccc(S(=O)(=O)N(CCc2ccccc2C[C@H](C(=O)O)[C@H]2CCNC2)Cc2cc(C[C@H](C(=O)O)[C@H]3CCNC3)c(F)cc2F)c1)[C@H]1CCNC1 [Compound 27] | 79.6
25 | O=C(O)C(Cc1cccc(CCN(CCc2cccc(CC(C(=O)O)C3CCNC3)c2)S(=O)(=O)c2cccc(CC(C(=O)O)C3CCNC3)c2)c1)C1CCNC1 [Compound 21, (2S,2'S)-3,3'(3-((S)-2-carboxyl-2-((R)-pyrrolid-3-yl)ethyl)phenyl)sulfonyl)azadiyl)bis(ethane-2,1-diyl))bis(3,1-phenylenyl)bis(2-(R)-pyrrolid-3-yl)propanoic acid)] | 33.9
26 | O=C(O)[C@@H](Cc1cccc(CCN(CCc2ccccc2C[C@H](C(=O)O)[C@H]2CCNC2)S(=O)(=O)c2cccc(C[C@H](C(=O)O)[C@H]3CCNC3)c2)c1)[C@H]1CCNC1 [Compound 19] | 40.9
27 | O=C(O)[C@@H](Cc1cccc(S(=O)(=O)N(Cc2cc(C[C@H](C(=O)O)[C@H]3CCNC3)c(F)cc2F)Cc2cc(C[C@H](C(=O)O)[C@H]3CCNC3)c(F)cc2F)c1)[C@H]1CCNC1 [Compound 16] | 23.8
28 | O=C(O)C(Cc1cccc(CN(Cc2cccc(CC(C(=O)O)C3CCNC3)c2)S(=O)(=O)c2cc(F)cc(CC(C(=O)O)C3CCNC3)c2)c1)C1CCNC1 [Compound 7, (2S,2'S)-3,3'(3-((S)-2-carboxyl-2-(R)-pyrrolid-3-yl)ethyl)-5-fluorophenyl sulfonyl)azadiyl)dimethylenyl)bis(3,1-phenylenyl)bis(2-(R)-pyrrolid-3-yl)propanoic acid)] | 69.9
